In US20220135591A1, “HETEROCYCLIC COMPOUNDS AS INHIBITORS OF MONOACYLGLYCEROL LIPASE (MAGL)” (Hoffmann-La Roche Inc., priority 2019, published 2022):

Target: T1, MAGL (recombinant wild-type) (Homo sapiens, UniProt Q99685)
T1 sequence (Q99685 1-303): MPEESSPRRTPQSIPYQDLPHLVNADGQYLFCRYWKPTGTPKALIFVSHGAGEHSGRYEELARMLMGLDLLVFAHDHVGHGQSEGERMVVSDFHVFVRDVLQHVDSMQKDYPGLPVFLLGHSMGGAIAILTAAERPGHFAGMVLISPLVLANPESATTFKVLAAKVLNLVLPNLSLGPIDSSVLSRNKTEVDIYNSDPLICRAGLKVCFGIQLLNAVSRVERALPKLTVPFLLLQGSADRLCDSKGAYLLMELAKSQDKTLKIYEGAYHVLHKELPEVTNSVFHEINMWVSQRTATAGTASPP
Assay: 4-NPA assay: MAGL inhibitory activity by hydrolysis of 4-nitrophenylacetate, absorbance at 405 nm
Format: biochemical
Conditions: 4-NPA assay (values without footnote [b])
Procedure, shortened: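 Final assay: 1 nM MAGL and 300 μM 4-nitrophenylacetate in 50 mM Tris, 1 mM EDTA, at RT. Compounds (25 μM–1.7 nM, 3-fold steps) were preincubated 15 min with enzyme. A405 was read 5 min after substrate addition and again after 80 min; activity was taken as the difference between reads.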

Row | Compound | IC50 [nM]
1 | Cc1ccc2oc(N3CCN(C(=O)c4ccc(N5CC(Oc6ccccc6)C5)cc4)CC3)nc2n1 [Example 198, (4-(5-methyloxazolo[4,5-b]pyridin-2-yl)piperazin-1-yl)(4-(3-phenoxyazetidin-1-yl)phenyl)methanone] | 46
2 | Cc1ccc2oc(N3CCN(C(=O)c4ccc(OCc5cccc(Cl)c5)c(-c5ncc[nH]5)c4)CC3)nc2n1 [Example 199, [4-[(3-chlorophenyl)methoxy]-3-(1H-imidazol-2-yl)phenyl]-[4-(5-methyl-[1,3]oxazolo[4,5-b]pyridin-2-yl)piperazin-1-yl]methanone] | 625
3 | Cc1ccc2oc(N3CCN(C(=O)c4ccc(N5CC(O[C@@H](C)C(F)(F)F)C5)cc4)CC3)nc2n1 [Example 200, (S)-(4-(5-methyloxazolo[4,5-b]pyridin-2-yl)piperazin-1-yl)(4-(3-((1,1,1-trifluoropropan-2-yl)oxy)azetidin-1-yl)phenyl)methanone] | 15
4 | Cc1ccc2oc(N3CCN(C(=O)c4ccc(N5CC(O[C@H](C)C(F)(F)F)C5)cc4)CC3)nc2n1 [Example 201, (R)-(4-(5-methyloxazolo[4,5-b]pyridin-2-yl)piperazin-1-yl)(4-(3-((1,1,1-trifluoropropan-2-yl)oxy)azetidin-1-yl)phenyl)methanone] | 38
5 | O=C(c1ccc(N2CCC3(C2)CC3(F)F)cc1)N1CCN(c2nc3nc(Cl)ccc3o2)CC1 (centres unmarked) [Example 202, [4-(5-chloro-[1,3]oxazolo[4,5-b]pyridin-2-yl)piperazin-1-yl]-[4-(2,2-difluoro-5-azaspiro[2.4]heptan-5-yl)phenyl]methanone] | 14
6 | O=C(c1ccc(N2CC3(CCC3(F)F)C2)cc1)N1CCN(c2nc3nc(Cl)ccc3o2)CC1 [Example 203, [4-(5-chloro-[1,3]oxazolo[4,5-b]pyridin-2-yl)piperazin-1-yl]-[4-(7,7-difluoro-2-azaspiro[3.3]heptan-2-yl)phenyl]methanone] | 35
7 | CC(C)(C)OC1CN(c2ccc(C(=O)N3CCN(c4nc5nc(Cl)ccc5o4)CC3)cc2)C1 [Example 204, (4-(3-(tert-butoxy)azetidin-1-yl)phenyl)(4-(5-chlorooxazolo[4,5-b]pyridin-2-yl)piperazin-1-yl)methanone] | 18
8 | CCC(C)(C)OC1CN(c2ccc(C(=O)N3CCN(c4nc5nc(Cl)ccc5o4)CC3)cc2)C1 [Example 205, (4-(5-chlorooxazolo[4,5-b]pyridin-2-yl)piperazin-1-yl)(4-(3-(tert-pentyloxy)azetidin-1-yl)phenyl)methanone] | 5
9 | Cc1ccc2oc(N3CCN(C(=O)c4ccc(N5CC6(CCC6(F)F)C5)cc4)CC3)nc2n1 [Example 206, (4-(5,5-difluoro-2-azaspiro[3.3]heptan-2-yl)phenyl)(4-(5-methyloxazolo[4,5-b]pyridin-2-yl)piperazin-1-yl)methanone] | 61
10 | Cc1ccc2oc(N3CCN(C(=O)c4ccc(N5CC(OC(C)C(F)(F)F)C5)cc4F)CC3)nc2n1 (centres unmarked) [Example 207, (2-fluoro-4-(3-((1,1,1-trifluoropropan-2-yl)oxy)azetidin-1-yl)phenyl)(4-(5-methyloxazolo[4,5-b]pyridin-2-yl)piperazin-1-yl)methanone] | 16
11 | CC(OC1CN(c2ccc(C(=O)N3CCN(c4nc5nc(Cl)ccc5o4)CC3)cc2)C1)C(F)(F)F (centres unmarked) [Example 208, (4-(5-chlorooxazolo[4,5-b]pyridin-2-yl)piperazin-1-yl)(4-(3-((1,1,1-trifluoropropan-2-yl)oxy)azetidin-1-yl)phenyl)methanone] | 16
12 | CCOC1(C)CN(c2ccc(C(=O)N3CCN(c4nc5nc(Cl)ccc5o4)CC3)cc2)C1 [Example 209, (4-(5-chlorooxazolo[4,5-b]pyridin-2-yl)piperazin-1-yl)(4-(3-ethoxy-3-methylazetidin-1-yl)phenyl)methanone] | 235
13 | Cc1ccc2oc(N3CCN(C(=O)c4ccc(N5CC(OC(C)C(F)(F)F)C5)c(F)c4)CC3)nc2n1 (centres unmarked) [Example 210, (3-fluoro-4-(3-((1,1,1-trifluoropropan-2-yl)oxy)azetidin-1-yl)phenyl)(4-(5-methyloxazolo[4,5-b]pyridin-2-yl)piperazin-1-yl)methanone] | 24
14 | Cc1ccc2oc(N3CCN(C(=O)c4ccc(N5CC(OC(C)C(F)(F)F)C5)cc4C)CC3)nc2n1 (centres unmarked) [Example 211, (2-methyl-4-(3-((1,1,1-trifluoropropan-2-yl)oxy)azetidin-1-yl)phenyl)(4-(5-methyloxazolo[4,5-b]pyridin-2-yl)piperazin-1-yl)methanone] | 346
15 | Cc1ccc2oc(N3CCN(C(=O)c4c(F)cc(N5CC(OC(C)C(F)(F)F)C5)cc4F)CC3)nc2n1 (centres unmarked) [Example 212, (2,6-difluoro-4-(3-((1,1,1-trifluoropropan-2-yl)oxy)azetidin-1-yl)phenyl)(4-(5-methyloxazolo[4,5-b]pyridin-2-yl)piperazin-1-yl)methanone] | 1130
16 | Cc1ccc2oc(N3CCN(C(=O)c4ccc(N5CC(OC(C)C(F)(F)F)C5)cc4Cl)CC3)nc2n1 (centres unmarked) [Example 213, (2-chloro-4-(3-((1,1,1-trifluoropropan-2-yl)oxy)azetidin-1-yl)phenyl)(4-(5-methyloxazolo[4,5-b]pyridin-2-yl)piperazin-1-yl)methanone] | 99
17 | Cc1ccc2oc(N3CCN(C(=O)c4ccc(N5CC(OC(C)C(F)(F)F)C5)nc4)CC3)nc2n1 (centres unmarked) [Example 214, (4-(5-methyloxazolo[4,5-b]pyridin-2-yl)piperazin-1-yl)(6-(3-((1,1,1-trifluoropropan-2-yl)oxy)azetidin-1-yl)pyridin-3-yl)methanone] | 170
18 | CCC(C)(C)OC1CN(c2ccc(C(=O)N3CCN(c4nc5nc(C)ccc5o4)CC3)cn2)C1 [Example 215, (4-(5-methyloxazolo[4,5-b]pyridin-2-yl)piperazin-1-yl)(6-(3-(tert-pentyloxy)azetidin-1-yl)pyridin-3-yl)methanone] | 70
19 | Cc1ccc2oc(N3CCN(C(=O)c4cnc(N5CC(OC(C)C(F)(F)F)C5)c(C)c4)CC3)nc2n1 (centres unmarked) [Example 216, (5-methyl-6-(3-((1,1,1-trifluoropropan-2-yl)oxy)azetidin-1-yl)pyridin-3-yl)(4-(5-methyloxazolo[4,5-b]pyridin-2-yl)piperazin-1-yl)methanone] | 113
20 | Cc1ccc2oc(N3CCN(C(=O)c4cnc(N5CC(OC(C)C(F)(F)F)C5)c(F)c4Cl)CC3)nc2n1 (centres unmarked) [Example 217, (4-chloro-5-fluoro-6-(3-((1,1,1-trifluoropropan-2-yl)oxy)azetidin-1-yl)pyridin-3-yl)(4-(5-methyloxazolo[4,5-b]pyridin-2-yl)piperazin-1-yl)methanone] | 167
21 | Cc1ccc2oc(N3CCN(C(=O)c4ccc(N5CC(OC(C)C(F)(F)F)C5)nn4)CC3)nc2n1 (centres unmarked) [Example 218, (4-(5-methyloxazolo[4,5-b]pyridin-2-yl)piperazin-1-yl)(6-(3-((1,1,1-trifluoropropan-2-yl)oxy)azetidin-1-yl)pyridazin-3-yl)methanone] | 1540
22 | Cc1ccc2oc(N3CCN(C(=O)c4cnc(N5CC(OC(C)C(F)(F)F)C5)nc4)CC3)nc2n1 (centres unmarked) [Example 219, (4-(5-methyloxazolo[4,5-b]pyridin-2-yl)piperazin-1-yl)(2-(3-((1,1,1-trifluoropropan-2-yl)oxy)azetidin-1-yl)pyrimidin-5-yl)methanone] | 220
23 | Cc1ccc2oc(N3CCN(C(=O)c4cnc(N5CC(OC(C)C(F)(F)F)C5)cc4C)CC3)nc2n1 (centres unmarked) [Example 220, (4-methyl-6-(3-((1,1,1-trifluoropropan-2-yl)oxy)azetidin-1-yl)pyridin-3-yl)(4-(5-methyloxazolo[4,5-b]pyridin-2-yl)piperazin-1-yl)methanone] | 4000
24 | Cc1ccc2oc(N3CCN(C(=O)c4cnc(N5CC6(CCC6(F)F)C5)cc4C)CC3)nc2n1 [Example 221, (6-(5,5-difluoro-2-azaspiro[3.3]heptan-2-yl)-4-methylpyridin-3-yl)(4-(5-methyloxazolo[4,5-b]pyridin-2-yl)piperazin-1-yl)methanone] | 13100
25 | Cc1ccc2oc(N3CCN(C(=O)c4cnc(N5CCC6(C5)CC6(F)F)nc4)CC3)nc2n1 (centres unmarked) [Example 222, (2-(1,1-difluoro-5-azaspiro[2.4]heptan-5-yl)pyrimidin-5-yl)(4-(5-methyloxazolo[4,5-b]pyridin-2-yl)piperazin-1-yl)methanone] | 794
26 | Cc1ccc2oc(N3CCN(C(=O)c4cnc(N5CCC6(C5)CC6(F)F)cc4C)CC3)nc2n1 (centres unmarked) [Example 223, (6-(1,1-difluoro-5-azaspiro[2.4]heptan-5-yl)-4-methylpyridin-3-yl)(4-(5-methyloxazolo[4,5-b]pyridin-2-yl)piperazin-1-yl)methanone] | 4460
27 | Cc1ccc2oc(N3CCN(C(=O)c4cnc(N5CC(OC(C)C(F)(F)F)C5)c(F)c4)CC3)nc2n1 (centres unmarked) [Example 224, (5-fluoro-6-(3-((1,1,1-trifluoropropan-2-yl)oxy)azetidin-1-yl)pyridin-3-yl)(4-(5-methyloxazolo[4,5-b]pyridin-2-yl)piperazin-1-yl)methanone] | 90
28 | Cc1ccc2oc(N3CCN(C(=O)c4cnc(N5CCC6(C5)CC6(F)F)c(C)c4)CC3)nc2n1 (centres unmarked) [Example 225, (6-(1,1-difluoro-5-azaspiro[2.4]heptan-5-yl)-5-methylpyridin-3-yl)(4-(5-methyloxazolo[4,5-b]pyridin-2-yl)piperazin-1-yl)methanone] | 244
29 | Cc1ccc2oc(N3CCN(C(=O)c4cnc(N5CC(OC(C)C(F)(F)F)C5)c(Cl)c4)CC3)nc2n1 (centres unmarked) [Example 226, (5-chloro-6-(3-((1,1,1-trifluoropropan-2-yl)oxy)azetidin-1-yl)pyridin-3-yl)(4-(5-methyloxazolo[4,5-b]pyridin-2-yl)piperazin-1-yl)methanone] | 38
